Data on 29 compounds can be found in US7468359B2, “Compositions comprising oxophosphonate-based metalloproteinase inhibitors” (Yissum Research Develpment Company of the Hebrew University …, priority 1999, dated 2008).

Molecules are shown by their SMILES. Like-named read-outs stand apart in the source and are kept apart here.

For test [1], the system named is cancer cells. As to the kind of experiment: Matrigel chemoinvasion assay in Boyden chambers. The format is cell-based. The following applies: for inhibition at 50 µM: read-out: % Inhibition of Chemoinvasion 50 uM.
For test [2], the target named is T1, MMP2 (Homo sapiens, UniProt P08253).
T1 sequence (P08253 110-660): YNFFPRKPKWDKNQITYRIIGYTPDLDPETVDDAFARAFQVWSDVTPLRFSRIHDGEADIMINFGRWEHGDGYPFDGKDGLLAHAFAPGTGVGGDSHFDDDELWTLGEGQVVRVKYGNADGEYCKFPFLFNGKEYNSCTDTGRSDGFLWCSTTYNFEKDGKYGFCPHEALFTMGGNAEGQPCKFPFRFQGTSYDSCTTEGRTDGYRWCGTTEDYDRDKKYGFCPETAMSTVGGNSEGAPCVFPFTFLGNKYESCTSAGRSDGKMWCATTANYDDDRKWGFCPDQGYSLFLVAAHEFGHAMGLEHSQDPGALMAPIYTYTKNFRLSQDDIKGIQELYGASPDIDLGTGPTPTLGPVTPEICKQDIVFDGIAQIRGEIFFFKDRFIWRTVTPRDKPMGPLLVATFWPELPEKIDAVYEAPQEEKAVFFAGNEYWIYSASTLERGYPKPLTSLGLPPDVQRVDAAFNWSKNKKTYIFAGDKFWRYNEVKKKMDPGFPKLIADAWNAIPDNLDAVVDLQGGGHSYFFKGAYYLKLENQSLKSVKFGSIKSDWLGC
Briefly: Activity on pure MMP2 enzyme. It counts as biochemical.

For test [3], the system named is Endothelial cells. Briefly: Endothelial cell tube formation (capillary formation). It counts as cell-based.
For test [4], the system named is murine melanoma. Briefly: Metastasis formation in the murine melanoma model. The format is in vivo, mice. Conditions: 50 mg/kg daily injections for 21 d, lung tumors counted, vs untreated animals.

In general, inhibition refers to the change of the read-out against control, counted positive when it falls. Usually IC50 stands for the concentration at which inhibition is half-maximal. Read a low IC50 as greater potency.

As to `CNC(=O)[C@H](Cc1ccccc1)NC(=O)[C@H](CC(C)C)[C@H](CSc1cccs1)C(=O)NO` [Batimastat, reference compound], in test [1], the inhibition at 50 µM worked out at 40%. In the case of `CCOC([O-])[PH](=O)C(=O)N(C)O.[Na+]` (stereo not shown) [Compound 1], the Activity result in test [1] is reported as “++ (key: ++++: active at submicromolar concen-tration; +++: active at 1-10 μM; ++: active at 50-100 μM; +: active at 100 μM; −: not active at 100 μM)”.

In the case of `O=C(OCc1ccccc1)P(=O)([O-])O.[Na+]` [Compound 5], the Activity result in test [1] is recorded as “++ (key: ++++: active at submicromolar concen-tration; +++: active at 1-10 μM; ++: active at 50-100 μM; +: active at 100 μM; −: not active at 100 μM)”. On the same count and under the same terms, to `O=C(c1ccccc1)P(=O)([O-])O.[Na+]` [Compound 7] belongs “++ (key: ++++: active at submicromolar concen-tration; +++: active at 1-10 μM; ++: active at 50-100 μM; +: active at 100 μM; −: not active at 100 μM)”. In the case of `O=C(c1ccc(Cl)cc1)P(=O)([O-])[O-].[Na+].[Na+]` [Compound 8, p-chlorobenzoylphosphonic acid sodium salt], in test [1], the Activity result was “+++ (key: ++++: active at submicromolar concen-tration; +++: active at 1-10 μM; ++: active at 50-100 μM; +: active at 100 μM; −: not active at 100 μM)” and the MMP inhibiting activity entry is reported as “considerable MMP inhibiting activity”.

In the case of `CCC(=O)P(=O)([O-])O.[Na+]` [Compound 10], the Activity result in test [1] is “+ (key: ++++: active at submicromolar concen-tration; +++: active at 1-10 μM; ++: active at 50-100 μM; +: active at 100 μM; −: not active at 100 μM)”. Take `CCC(=O)P(=O)([O-])OC.[Na+]` [Compound 11]: the Activity result in test [1] is “+ (key: ++++: active at submicromolar concen-tration; +++: active at 1-10 μM; ++: active at 50-100 μM; +: active at 100 μM; −: not active at 100 μM)”.

Regarding `O=C(Cc1ccccc1)P(=O)([O-])O.[Na+]` [Compound 12], in test [1], the Activity result is “+ (key: ++++: active at submicromolar concen-tration; +++: active at 1-10 μM; ++: active at 50-100 μM; +: active at 100 μM; −: not active at 100 μM)”.

As for `COP(=O)([O-])C(=O)Cc1ccccc1.[Na+]` [Compound 13], the Activity entry in test [1] is “++ (key: ++++: active at submicromolar concen-tration; +++: active at 1-10 μM; ++: active at 50-100 μM; +: active at 100 μM; −: not active at 100 μM)”. In the case of `CCC(=NO)P(=O)([O-])OC.[Li+]` [Compound 14], the Activity result in test [1] was “+ (key: ++++: active at submicromolar concen-tration; +++: active at 1-10 μM; ++: active at 50-100 μM; +: active at 100 μM; −: not active at 100 μM)”.

Take `O=C(NCc1ccccc1)P(=O)([O-])O.[Na+]` [Compound 16]: in test [1], the Activity entry was “++ (key: ++++: active at submicromolar concen-tration; +++: active at 1-10 μM; ++: active at 50-100 μM; +: active at 100 μM; −: not active at 100 μM)”. Consider `O=C(NCCc1ccccc1)P(=O)([O-])O.[Na+]` [Compound 17], for which the Activity entry in test [1] (preliminary screening, invasion/chemotaxis chambers vs untreated preparations) was “+ (active at 100 μM)”.

Turning to `CCCCNC(=O)P(=O)([O-])O.[Na+]` [Compound 23], the Activity entry in test [1] is on record as “+ (key: ++++: active at submicromolar concen-tration; +++: active at 1-10 μM; ++: active at 50-100 μM; +: active at 100 μM; −: not active at 100 μM)”. `CN(C)CCNC(=O)P(=O)(O)O` [Compound 26, N-(2-dimethylaminoethyl)phosphonoformamide Betaine] displayed an IC50 in test [2] of 25 nM. In test [3] (Endothelial cell, read-out: % Inhibition of Capillary Formation 50 µM), the inhibition at 50 µM is 75%. Also, the “% Inhibition of Metastasis Formation 50 mg/kg for 21 d” value (from here on “% Inhibition … for 21 d”) in test [4] is given as 73%. In test [1], the Activity result was “++++ (key: ++++: active at submicromolar concen-tration; +++: active at 1-10 μM; ++: active at 50-100 μM; +: active at 100 μM; −: not active at 100 μM)” and the inhibition at 50 µM turned out to be 66%. In the case of `O=C(NC1CCCCC1)P(=O)(O)O` [Compound 33], the Activity entry in test [1] was “++++ (key: ++++: active at submicromolar concen-tration; +++: active at 1-10 μM; ++: active at 50-100 μM; +: active at 100 μM; −: not active at 100 μM)”. Regarding `O=P([O-])([O-])Cc1ccc(Cl)cc1.[Na+].[Na+]` [Compound 38, p-chlorobenzylphosphonic acid sodium salt, reference compound], in test [1], the Activity entry is reported as “− (key: ++++: active at submicromolar concen-tration; +++: active at 1-10 μM; ++: active at 50-100 μM; +: active at 100 μM; −: not active at 100 μM)” and the MMP inhibiting activity result is “completely devoid of inhibitory activity”. The compound `O=C(NC1CCCCC1)P(=O)(O)O` [Example 5, Hydrogen Sodium N-cyclohexylcarbamoylphosphonate] had an IC50 in test [2] of 80 nM. The “concentration at which active in the Boyden chamber chemoinvasion assay” value (from here on “concentration at which active”) in test [1] stood at 1 µM. On to `O=C(NCCN1CCOCC1)P(=O)(O)O` [Example 7, N-(2-[4-morpholino]ethyl)phosphonoformamide Betaine], for which the “concentration at which active” value in test [1] turned out to be 100 µM.

Take `O=C(NCCN1CCCCC1)P(=O)(O)O` [Example 8, N-(2-[1-piperidino]ethyl)phosphonoformamide Betaine]: the “concentration at which active” value in test [1] turned out to be 100 µM. Take `O=C(NCCN1CCCC1)P(=O)(O)O` [Example 9, N-(2-[1-pyrrolidino]ethyl)phosphonoformamide Betaine]: the “concentration at which active” value in test [1] worked out at 100 µM.

As to `CC(=O)NCCNC(=O)P(=O)(O)O` [Example 10, N-(2-acetamidoethyl)phosphonoformamide], the “concentration at which active” value in test [1] turned out to be 100 µM. In the case of `O=C(NCCc1c[nH]cn1)P(=O)(O)O` [Example 15, Phosphonoformylhistamine], the “% Inhibition of Chemoinvasion 50 uM” value in test [1] is on record as 15%. Turning to `O=C(NC1CCCC1)P(=O)(O)O` [Example 16, N-cyclopentylcarbamoylphosphonic Acid], the “% Inhibition of Capillary Formation 50 UM” value in test [3] came out at 70%. For the same compound, in test [4], the “% Inhibition … for 21 d” value was found to be 70%. Further, the “% Inhibition of Chemoinvasion 50 uM” value in test [1] (50 uM) is 65%.

As to `O=C(NCCSCc1ccccc1)P(=O)(O)O` [Example 17, N-(S-benzylmercaptoethyl)carbamoylphosphonic Acid], in test [3], the “% Inhibition of Capillary Formation 50 UM” value worked out at 58%. In addition, in test [1] (50 uM), the “% Inhibition of Chemoinvasion 50 uM” value is reported as 61%.

In the case of `CNC(=O)[C@@H](NC(=O)[C@H](CC(C)C)NC(=O)P(=O)(O)O)C(C)C` [Example 18, Phosphonoformyl-Leu-Val-NHMe], the “% Inhibition of Capillary Formation 50 UM” value in test [3] was determined as 42%. Besides, the “% Inhibition of Chemoinvasion 50 uM” value in test [1] (50 uM) is reported as 38%. For `CNC(=O)[C@H](Cc1ccccc1)NC(=O)[C@H](CC(C)C)NC(=O)P(=O)(O)O` [Example 19, Phosphonoformyl-Leu-Phe-NHMe], the “% Inhibition of Capillary Formation 50 UM” value in test [3] is listed as 60%. Also, the “% Inhibition of Chemoinvasion 50 uM” value in test [1] worked out at 55%.

Take `CNC(=O)[C@H](Cc1ccc(OC)cc1)NC(=O)[C@H](CC(C)C)NC(=O)P(=O)(O)O` [Example 20, Phosphonoformyl-Leu-Tyr(Me)-NHMe]: the “% Inhibition of Capillary Formation 50 UM” value in test [3] was 38%. The “% Inhibition … for 21 d” value in test [4] was found to be 75%. In addition, the “% Inhibition of Chemoinvasion 50 uM” value in test [1] (50 uM) stood at 39%. For the compound `CNC(=O)C(NC(=O)C(Cc1ccccc1)NC(=O)P(=O)(O)O)C(C)C` (stereo not drawn) [Example 21, Phosphonoformyl-Phe-Val-CONHMe], the “% Inhibition of Chemoinvasion 50 uM” value in test [1] (50 uM) is recorded as 41%. `CNC(=O)[C@H](Cc1ccc(OC)cc1)NC(=O)[C@@H](CC(=O)NO)CC(C)C` [SC-44463, reference compound]: the “% Inhibition … for 21 d” value in test [4] is recorded as 70-75%.
